From ChEMBL document CHEMBL2151017, “Inhibition of α-glucosidase and α-amylase by diaryl derivatives of imidazole-thione and 1,2,4-triazole-thiol” (Eur J Med Chem, 2011)
Activity calls are given as the source filed them. The rule behind the calls is not given here.

Columns and labels:
[1] = Toxicity in po dosed Spanish V-line rabbit assessed as mortality after 24 hrs; type: organism-based, Oryctolagus cuniculus; conditions: in vivo
[2] = system: Oryctolagus cuniculus; assay: In vivo inhibition of Spanish V-line rabbit liver alpha-glucosidase assessed as specific enzyme activity per mg protein using maltose as substrate at 10% LD50, po after 8 hrs; type: functional
[3] = system: Oryctolagus cuniculus; assay: In vivo inhibition of Spanish V-line rabbit liver alpha-glucosidase assessed as specific enzyme activity per mg protein using maltose as substrate at 10% LD50, po after 16 hrs; type: functional
[4] = system: Oryctolagus cuniculus; assay: In vivo inhibition of Spanish V-line rabbit liver alpha-glucosidase assessed as specific enzyme activity per mg protein using maltose as substrate at 10% LD50, po after 24 hrs; type: functional
[5] = system: Oryctolagus cuniculus; assay: In vivo inhibition of Spanish V-line rabbit liver alpha-glucosidase assessed as specific enzyme activity per mg protein using maltose as substrate at 10% LD50, po after 48 hrs; type: functional
[6] = system: Oryctolagus cuniculus; assay: In vivo inhibition of Spanish V-line rabbit liver alpha-glucosidase assessed as specific enzyme activity per mg protein using maltose as substrate at 10% LD50, po after 72 hrs; type: functional
[7] = system: Oryctolagus cuniculus; assay: In vivo inhibition of Spanish V-line rabbit liver alpha-glucosidase assessed as specific enzyme activity per mg protein using maltose as substrate at 10% LD50, po after 96 hrs; type: functional
[8] = system: Oryctolagus cuniculus; assay: In vivo inhibition of Spanish V-line rabbit liver alpha-amylase assessed as specific enzyme activity per mg protein using starch as substrate at 10% LD50, po after 8 hrs; type: functional
[9] = system: Oryctolagus cuniculus; assay: In vivo inhibition of Spanish V-line rabbit liver alpha-amylase assessed as specific enzyme activity per mg protein using starch as substrate at 10% LD50, po after 16 hrs; type: functional
[10] = system: Oryctolagus cuniculus; assay: In vivo inhibition of Spanish V-line rabbit liver alpha-amylase assessed as specific enzyme activity per mg protein using starch as substrate at 10% LD50, po after 24 hrs; type: functional
[11] = system: Oryctolagus cuniculus; assay: In vivo inhibition of Spanish V-line rabbit liver alpha-amylase assessed as specific enzyme activity per mg protein using starch as substrate at 10% LD50, po after 48 hrs; type: functional
[12] = system: Oryctolagus cuniculus; assay: In vivo inhibition of Spanish V-line rabbit liver alpha-amylase assessed as specific enzyme activity per mg protein using starch as substrate at 10% LD50, po after 72 hrs; type: functional
[13] = system: Oryctolagus cuniculus; assay: In vivo inhibition of Spanish V-line rabbit liver alpha-amylase assessed as specific enzyme activity per mg protein using starch as substrate at 10% LD50, po after 96 hrs; type: functional
[14] = system: Oryctolagus cuniculus; assay: In vivo inhibition of Spanish V-line rabbit liver alpha-amylase assessed as specific enzyme activity per mg protein using starch as substrate at 10% LD50, po after 120 hrs; type: functional
[15] = system: Oryctolagus cuniculus; assay: In vivo inhibition of Spanish V-line rabbit alpha-glucosidase using maltose as substrate at 25% LD50, po after 24 hrs relative to control; type: functional
[16] = system: Oryctolagus cuniculus; assay: In vivo inhibition of Spanish V-line rabbit liver alpha-glucosidase assessed as specific enzyme activity per mg protein using maltose as substrate at 10% LD50, po after 120 hrs; type: functional
[17] = system: Oryctolagus cuniculus; assay: In vivo inhibition of alpha-glucosidase in po dosed Spanish V-line rabbit using maltose as substrate after 24 hrs; type: functional, organism-based
[18] = system: Oryctolagus cuniculus; assay: In vivo inhibition of alpha-amylase in po dosed Spanish V-line rabbit using starch as substrate at after 24 hrs; type: functional, organism-based
[19] = system: Oryctolagus cuniculus; assay: In vivo inhibition of Spanish V-line rabbit alpha-amylase using starch as substrate at 25% LD50, po after 24 hrs relative to control; type: functional
[20] = Inhibition of Spanish V-line rabbit liver alpha-glucosidase using maltose as substrate after 5 mins by spectrophotometry; set-up: species or system Oryctolagus cuniculus
[21] = species: Oryctolagus cuniculus; assay: Reversible Inhibition of Spanish V-line rabbit liver alpha-glucosidase using maltose as substrate compound preincubated for 60 mins by dialysis method
[22] = species: Oryctolagus cuniculus; assay: Reversible Inhibition of Spanish V-line rabbit liver alpha-amylase using starch as substrate compound preincubated for 60 mins by dialysis method
[23] = species: Oryctolagus cuniculus; assay: Inhibition of Spanish V-line rabbit liver alpha-amylase using starch as substrate assessed per mg protein at 16 uM by Lineweaver-Burk plot ( RVb = 9.0 +/- 0.8 10^-3 uM/min/mg protein )
[24] = species: Oryctolagus cuniculus; assay: Inhibition of Spanish V-line rabbit liver alpha-amylase using starch as substrate assessed per mg protein at 32 uM by Lineweaver-Burk plot ( RVb = 9.0 +/- 0.8 10^-3 uM/min/mg protein )
[25] = species: Oryctolagus cuniculus; assay: Inhibition of Spanish V-line rabbit liver alpha-amylase using starch as substrate assessed per mg protein at 64 uM by Lineweaver-Burk plot ( RVb = 9.0 +/- 0.8 10^-3 uM/min/mg protein )
[26] = species: Oryctolagus cuniculus; assay: Inhibition of Spanish V-line rabbit liver alpha-amylase using starch as substrate assessed per mg protein at 48 uM by Lineweaver-Burk plot ( RVb = 9.0 +/- 0.8 10^-3 uM/min/mg protein )
[27] = species: Oryctolagus cuniculus; assay: Inhibition of Spanish V-line rabbit liver alpha-glucosidase using maltose as substrate assessed per mg protein at 16 uM by Lineweaver-Burk plot ( RVb = 55 +/- 5 10^-3 uM/min/mg protein )
[28] = species: Oryctolagus cuniculus; assay: Inhibition of Spanish V-line rabbit liver alpha-glucosidase using maltose as substrate assessed per mg protein at 32 uM by Lineweaver-Burk plot ( RVb = 55 +/- 5 10^-3 uM/min/mg protein )
[29] = species: Oryctolagus cuniculus; assay: Inhibition of Spanish V-line rabbit liver alpha-glucosidase using maltose as substrate assessed per mg protein at 48 uM by Lineweaver-Burk plot ( RVb = 55 +/- 5 10^-3 uM/min/mg protein )
[30] = species: Oryctolagus cuniculus; assay: Inhibition of Spanish V-line rabbit liver alpha-glucosidase using maltose as substrate assessed per mg protein at 64 uM by Lineweaver-Burk plot ( RVb = 55 +/- 5 10^-3 uM/min/mg protein )
[31] = Competitive inhibition of Spanish V-line rabbit liver alpha-glucosidase using maltose as substrate by Dixon plot analysis; set-up: species or system Oryctolagus cuniculus
[32] = species: Oryctolagus cuniculus; assay: Competitive inhibition of Spanish V-line rabbit liver alpha-glucosidase using maltose as substrate
[33] = species: Oryctolagus cuniculus; assay: Inhibition of Spanish V-line rabbit liver alpha-amylase using starch as substrate
[34] = species: Oryctolagus cuniculus; assay: Inhibition of Spanish V-line rabbit liver alpha-glucosidase using maltose as substrate assessed per mg protein at 12 uM by Lineweaver-Burk plot ( RVb = 55 +/- 5.2 10^-3 uM/min/mg protein )
[35] = Inhibition of Spanish V-line rabbit liver alpha-amylase using starch as substrate after 5 mins by spectrophotometry; set-up: species or system Oryctolagus cuniculus
[36] = species: Oryctolagus cuniculus; assay: Inhibition of Spanish V-line rabbit liver alpha-glucosidase using maltose as substrate assessed per mg protein at 24 uM by Lineweaver-Burk plot ( RVb = 55 +/- 5.2 10^-3 uM/min/mg protein )
[37] = species: Oryctolagus cuniculus; assay: Inhibition of Spanish V-line rabbit liver alpha-glucosidase using maltose as substrate assessed per mg protein at 36 uM by Lineweaver-Burk plot ( RVb = 55 +/- 5.2 10^-3 uM/min/mg protein )
[38] = species: Oryctolagus cuniculus; assay: Inhibition of Spanish V-line rabbit liver alpha-glucosidase using maltose as substrate assessed per mg protein at 48 uM by Lineweaver-Burk plot ( RVb = 55 +/- 5.2 10^-3 uM/min/mg protein )
[39] = species: Oryctolagus cuniculus; assay: Inhibition of Spanish V-line rabbit liver alpha-amylase using starch as substrate assessed per mg protein at 12 uM by Lineweaver-Burk plot ( RVb = 9.0 +/- 0.8 10^-3 uM/min/mg protein )
[40] = species: Oryctolagus cuniculus; assay: Inhibition of Spanish V-line rabbit liver alpha-amylase using starch as substrate assessed per mg protein at 24 uM by Lineweaver-Burk plot ( RVb = 9.0 +/- 0.8 10^-3 uM/min/mg protein )
[41] = species: Oryctolagus cuniculus; assay: Inhibition of Spanish V-line rabbit liver alpha-amylase using starch as substrate assessed per mg protein at 36 uM by Lineweaver-Burk plot ( RVb = 9.0 +/- 0.8 10^-3 uM/min/mg protein )
[42] = Non-competitive inhibition of Spanish V-line rabbit liver alpha-glucosidase using maltose as substrate by Dixon plot analysis; set-up: species or system Oryctolagus cuniculus
[43] = Non-competitive inhibition of Spanish V-line rabbit liver alpha-glucosidase using maltose as substrate by Lineweaver-Burk plot analysis; set-up: species or system Oryctolagus cuniculus
[44] = Non-competitive inhibition of Spanish V-line rabbit liver alpha-amylase using starch as substrate by Lineweaver-Burk plot analysis; set-up: species or system Oryctolagus cuniculus
[45] = Non-competitive inhibition of Spanish V-line rabbit liver alpha-amylase using starch as substrate by Dixon plot analysis; set-up: species or system Oryctolagus cuniculus
[46] = species: Oryctolagus cuniculus; assay: Non-competitive inhibition of Spanish V-line rabbit liver alpha-glucosidase using maltose as substrate
[47] = species: Oryctolagus cuniculus; assay: Non-competitive inhibition of Spanish V-line rabbit liver alpha-amylase using starch as substrate

Structure (SMILES)	LD50 at 24 h [1]	Activity [2]	Activity [3]	Activity [4]	Activity [5]	Activity [6]	Activity [7]	Activity [8]	Activity [9]	Activity [10]	Activity [11]	Activity [12]	Activity [13]	Activity [14]	inhibition (INH) [15]	Activity [16]	inhibition [17]	inhibition [18]	inhibition (INH) [19]	IC50 [20]	other results
Oc1ccccc1-c1nnc(S)n1-c1ccccc1	155 mg/kg	15.6 µM/min	14.2 µM/min	13.1 µM/min	14.2 µM/min	15.6 µM/min	16.2 µM/min	4.8 µM/min	4.4 µM/min	4.3 µM/min	4.4 µM/min	4.6 µM/min	4.8 µM/min	5.1 µM/min	57%	18.8 µM/min	Dose-dependent effect	Dose-dependent effect	27%	105 µM	inhibition [21]: Active; inhibition [22]: Active; Vmax [23]: 9.3 nM/min; Vmax [24]: 9.2 nM/min; Vmax [25]: 8.9 nM/min; Vmax [26]: 9.5 nM/min; Vmax [27]: 16.6 nM/min; Vmax [28]: 15.6 nM/min; Vmax [29]: 12.5 nM/min; Vmax [30]: 10.2 nM/min; Ki [31]: 50.8 µM; inhibition [32]: Dose-dependent effect; inhibition [33]: Dose-dependent effect
S=C1N=C(c2ccccc2)C(c2ccccc2)=N1	204 mg/kg	17.6 µM/min	15.2 µM/min	14.3 µM/min	15.6 µM/min	16.9 µM/min	19.3 µM/min	3.8 µM/min	3.1 µM/min	2.3 µM/min	2.9 µM/min	3.3 µM/min	4.3 µM/min	4.4 µM/min	62%	23.5 µM/min	Dose-dependent effect	Dose-dependent effect	53%	56 µM	Vmax [34]: 41 nM/min; IC50 [35]: 47 µM; inhibition [21]: Active; inhibition [22]: Active; Vmax [36]: 33 nM/min; Vmax [37]: 27 nM/min; Vmax [38]: 2.4 nM/min; Vmax [39]: 8.3 nM/min; Vmax [40]: 7.1 nM/min; Vmax [41]: 6.3 nM/min; Vmax [26]: 5.5 nM/min; Ki [42]: 43 µM; Ki [43]: 35 µM; Ki [44]: 63 µM; Ki [45]: 60 µM; inhibition [46]: Dose-dependent effect; inhibition [47]: Dose-dependent effect
